Laboratory results: patent US11311013B2, “Benzimidazole compound or salt thereof, agricultural and horticultural insecticidal and acaricidal agent containing said compound, and method for using same” (NIHON NOHYAKU CO., LTD., priority 2018, dated 2022)

Assays:
[1] = test system: Two-spotted spider mite (Tetranychus urticae); experiment: Acaricidal action on two-spotted spider mite, kidney bean leaf disk spray; assay type: in vivo; conditions: 500 ppm, 25° C., two days after treatment
Procedure: Acaricidal Action on Two-Spotted Spider Mite (Tetranychus urticae)
Leaf disk having a diameter of 2 cm was prepared by leaves of kidney bean, and the leaf disk was placed on the wetted filter paper. Adult hens of two-spotted spider mite were inoculated on the wetted filter paper, and then 50 ml of an agrochemical dispersion, prepared by diluting a formulation containing the benzimidazole compound represented by the general formula (1) of the present invention or salt thereof as an active ingredient to adjust each of the concentrations to 500 ppm, was sprayed on turntable uniformly. After the spraying, it was allowed to stand in a thermostatic chamber at 25° C. Two days after the treatment of an agrochemical dispersion, the dead mites were counted, the corrected mortality rate was calculated according to the formula shown below, and the acaricidal efficacy was evaluated according to the criteria of Test Example 2. This test was conducted in duplicate using 10 adult hens of two-spotted spider per plot. Corrected mortality (%)=(Number of dead mites in a non-treatment plot−Number of dead mites in a treatment plot)/(Number of dead mites in a non-treatment plot)×100 [Expression 4]

[2] = test system: Diamondback moth (Plutella xylostella); experiment: Insecticidal test on diamondback moth, dip of Chinese cabbage seedlings with laid eggs; assay type: in vivo; conditions: 144 h, dip about 30 seconds, 25° C., 6 days after dip treatment, hatched larvae counted, read-out: insecticidal efficacy (corrected mortality rate) activity level
Source text: Insecticidal Test on Diamondback Moth (Plutella xylostella)
Adults of diamondback moth were released onto Chinese cabbage seedlings and allowed to lay eggs thereon. At 2 days after the release of the adults, the Chinese cabbage seedlings with laid eggs were dipped for about 30 seconds in agrochemical dispersions diluted to 500 ppm, each of which contained a different benzimidazole compound represented by the general formula (1) of the present invention or salt thereof as an active ingredient. After air-dried, the seedlings were kept in a thermostatic chamber at 25° C. At 6 days after the dip treatment, the number of hatched larvae per plot was counted, the corrected mortality rate was calculated according to the formula shown below, and the insecticidal efficacy was evaluated according to the criteria of Test Example 2. This test was conducted in triplicate using 10 adults of diamondback moth per plot. Corrected mortality rate (%)=(Number of hatched larvae in a non-treatment plot−Number of hatched larvae in a treatment plot)/(Number of hatched larvae in a non-treatment plot)×100 [Expression 3]

Row | SMILES | acaricidal efficacy (corrected mortality rate) activity level [1] | mortality at 500 ppm [2] [%]
1 | CCCSc1ccc(-c2nc3ccccc3n2S(=O)(=O)CC)cn1 [Compound 5-14] | D or higher | –
2 | CCCCN(C)c1ccc(-c2nc3ccccc3n2S(=O)(=O)CC)cn1 [Compound 5-25] | D or higher | –
3 | CS(=O)(=O)n1c(-c2ccc(OCC(F)(F)C(F)(F)F)nc2)nc2ccccc21 [Compound 1-3] | D or higher | –
4 | CCS(=O)(=O)n1c(-c2ccc(Oc3ccc([S+]([O-])C(F)(F)F)cc3)nc2)nc2ccccc21 (centres unmarked) [Compound 1-41] | D or higher | –
5 | CCCCCCOc1ccc(-c2nc3ccccc3n2S(=O)(=O)CC)cn1 [Compound 1-49] | D or higher | –
6 | CCS(=O)(=O)n1c(-c2cncc(OCC(F)(F)C(F)(F)F)c2)nc2ccccc21 [Compound 3-1] | D or higher | –
7 | CCS(=O)(=O)n1c(-c2ccc(OCC(F)(F)C(F)(F)C(F)(F)F)nc2)nc2ccccc21 [Compound 1-20] | D or higher | –
8 | CCS(=O)(=O)n1c(-c2ccc(OCCC(C)(C)C)nc2)nc2ccccc21 [Compound 5-4] | D or higher | –
9 | O=S(=O)(CCl)n1c(-c2ccc(OCC(F)(F)C(F)(F)F)nc2)nc2ccccc21 [Compound 1-45] | D or higher | –
10 | CCCCS(=O)(=O)n1c(-c2ccc(OCC(F)(F)C(F)(F)F)nc2)nc2ccccc21 [Compound 1-5] | D or higher | –
11 | CCS(=O)(=O)n1c(-c2ccc(OCC(F)(F)C(F)(F)F)nc2)nc2ccc(Cl)cc21 [Compound 1-13] | D or higher | –
12 | CCS(=O)(=O)n1c(-c2ccc(SC3CCCCC3)nc2)nc2ccccc21 [Compound 5-19] | D or higher | –
13 | CCS(=O)(=O)n1c(-c2ccc(SC3CCCC3)nc2)nc2ccccc21 [Compound 5-18] | D or higher | –
14 | CCS(=O)(=O)n1c(-c2ccc(OCC(F)(F)C(F)C(F)(F)F)nc2)nc2ccccc21 (centres unmarked) [Compound 1-24] | D or higher | –
15 | CCS(=O)(=O)n1c(-c2ccc(OC3CCCCC3)nc2)nc2ccccc21 [Compound 5-3] | D or higher | –
16 | CCCS(=O)(=O)n1c(-c2ccc(OCC(F)(F)C(F)(F)F)nc2)nc2ccccc21 [Compound 1-4] | D or higher | –
17 | CCS(=O)(=O)n1c(-c2ccc(Oc3ccc(SC(F)(F)F)cc3)nc2)nc2ccccc21 [Compound 1-40] | D or higher | –
18 | CCS(=O)(=O)n1c(-c2ccc(OCC(F)(F)C(F)(F)F)nc2)nc2cc(C)c(C)cc21 [Compound 1-17] | D or higher | –
19 | CCCCOc1ccc(-c2nc3ccccc3n2S(=O)(=O)CC)cn1 [Compound 1-47] | D or higher | –
20 | CCCOc1ccc(-c2nc3ccccc3n2S(=O)(=O)CC)cn1 [Compound 5-1] | D or higher | –
21 | CCS(=O)(=O)n1c(-c2ccc(SCc3ccccc3)nc2)nc2ccccc21 [Compound 5-21] | D or higher | –
22 | CCS(=O)(=O)n1c(-c2cnc(OCC(F)(F)C(F)F)c(Cl)c2)nc2ccccc21 [Compound 5-10] | D or higher | –
23 | CCCCSc1ccc(-c2nc3ccccc3n2S(=O)(=O)CC)cn1 [Compound 5-17] | D or higher | –
24 | CCS(=O)(=O)n1c(-c2ccc(OCC(F)(F)C(F)(F)C(F)(F)C(F)(F)C(F)(F)C(F)F)nc2)nc2ccccc21 [Compound 5-12] | D or higher | –
25 | CCS(=O)(=O)n1c(-c2ccc(OCc3ccc([S+]([O-])C(F)(F)F)cc3)nc2)nc2ccccc21 (centres unmarked) [Compound 1-44] | D or higher | –

Row | SMILES | acaricidal efficacy (corrected mortality rate) activity level [1] | mortality at 500 ppm [2] [%]
26 | CCS(=O)(=O)n1c(-c2ccc(OC3CCCC3)nc2)nc2ccccc21 [Compound 1-50] | D or higher | –
27 | CCS(=O)(=O)n1c(-c2ccc(OC3CCCCCC3)nc2)nc2ccccc21 [Compound 1-51] | D or higher | –
28 | CCS(=O)(=O)n1c(-c2ccc(OCCOC)nc2)nc2ccccc21 [Compound 5-5] | D or higher | –
29 | CCCCCOc1ccc(-c2nc3ccccc3n2S(=O)(=O)CC)cn1 [Compound 1-48] | D or higher | –
30 | CCS(=O)(=O)n1c(-c2ccc(OCCSC)nc2)nc2ccccc21 [Compound 5-6] | D or higher | –
31 | CCS(=O)(=O)n1c(-c2ccc(OCC(F)(F)F)nc2)nc2ccccc21 [Compound 1-1] | D or higher | –
32 | CCS(=O)(=O)n1c(-c2ccc(OC(C(F)(F)F)C(F)(F)F)nc2)nc2ccccc21 [Compound 1-23] | D or higher | –
33 | CCS(=O)(=O)n1c(-c2ccc(OCC(F)(F)C(F)(F)F)nc2)nc2cc(Br)c(Br)cc21 [Compound 1-15] | D or higher | –
34 | CCS(=O)(=O)n1c(-c2ccc(OCC(F)(F)C(F)(F)F)nc2)nc2ccc(Br)cc21 [Compound 1-10] | D or higher | –
35 | CCS(=O)(=O)n1c(-c2ccc(OCC(F)(F)C(F)(F)F)nc2)nc2cc(Cl)c(Cl)cc21 [Compound 1-14] | D or higher | –
36 | CCS(=O)(=O)n1c(-c2ccc(OCC(F)(F)C(F)(F)F)nc2)nc2ccccc21 [Compound 1-2, 2-(2-(2,2,3,3,3-pentafluoropropyloxy)pyridin-5-yl)-1-ethanesulfonyl benzimidazole] | D or higher | 100
37 | CCS(=O)(=O)n1c(-c2ccc(OCC(F)(F)C(F)F)nc2)nc2ccccc21 [Compound 1-19] | D or higher | –
38 | CCS(=O)(=O)n1c(-c2ccc(OCc3ccc(SC(F)(F)F)cc3)nc2)nc2ccccc21 [Compound 1-43] | D or higher | –
39 | CCS(=O)(=O)n1c(-c2ccc(Oc3ccc(OC(F)(F)F)cc3)nc2)nc2ccccc21 [Compound 1-46] | D or higher | –
40 | CCCCN(CCCC)c1ccc(-c2nc3ccccc3n2S(=O)(=O)CC)cn1 [Compound 5-24] | D or higher | –
41 | CCS(=O)(=O)n1c(-c2ccc(OCCC(F)(F)C(F)(F)C(F)(F)C(F)(F)C(F)(F)C(F)(F)F)nc2)nc2ccccc21 [Compound 5-11] | D or higher | –
42 | CCS(=O)(=O)n1c(-c2ccc(OC(C)C)nc2)nc2ccccc21 [Compound 5-2] | D or higher | –
43 | CCS(=O)(=O)n1c(-c2ccc(Oc3ccc([Si](C)(C)C)cc3)nc2)nc2ccccc21 [Compound 5-8] | D or higher | –
44 | CCS(=O)(=O)n1c(-c2cnc(OCC(F)(F)F)c(Cl)c2)nc2ccccc21 [Compound 5-9] | D or higher | –
45 | CCS(=O)(=O)n1c(-c2cnc(OCC(F)(F)C(F)(F)F)c(Cl)c2)nc2ccccc21 [Compound 1-18] | D or higher | –
46 | CCS(=O)(=O)n1c(-c2ccc(Oc3ccc(S(=O)(=O)C(F)(F)F)cc3)nc2)nc2ccccc21 [Compound 1-42] | D or higher | –
47 | CCS(=O)(=O)n1c(-c2ccc(OCC(F)(F)C(F)(F)F)nc2)nc2cc(Cl)ccc21 [Compound 1-12] | D or higher | –
48 | CCS(=O)(=O)n1c(-c2ccc(SCC3CC3)nc2)nc2ccccc21 [Compound 5-20] | D or higher | –
49 | CCS(=O)(=O)n1c(-c2ccc(OCC(F)(F)C(F)(F)C(F)(F)F)nc2)nc2ccc(Br)cc21 [Compound 1-22] | D or higher | –
